Measured values: patent US8362038B2, “1-isopropyl-2-oxo-1,2-dihydropyridine-3-carboxamide derivatives having 5-HT4 receptor agonistic activity” (Pfizer Inc., priority 2004, dated 2013)
Structures can show the parent of a compound that is named as a salt.

Assays:
[1] = tested on: Caco-2 cells; assay: Caco-2 permeability; type: in vitro ADME
Procedure: (§1) Caco-2 permeability was measured according to the method described in Shiyin Yee, Pharmaceutical Research, 763 (1997).
(§2) Caco-2 cells were grown on filter supports (Falcon HTS multiwell insert system) for 14 days. Culture medium was removed from both the apical and basolateral compartments and the monolayers were preincubated with pre-warmed 0.3 ml apical buffer and 1.0 ml basolateral buffer for 0.5 hour at 37° C. in a shaker water bath at 50 cycles/min. The apical buffer consisted of Hanks Balanced Salt Solution, 25 mM D-glucose monohydrate, 20 mM MES Biological Buffer, 1.25 mM CaCl2 and 0.5 mM MgCl2 (pH 6.5). The basolateral buffer consisted of Hanks Balanced Salt Solution, 25 mM D-glucose monohydrate, 20 mM HEPES Biological Buffer, 1.25 mM CaCl2 and 0.5 mM MgCl2 (pH 7.4). At the end of the preincubation, the media was removed and test compound solution (10 μM) in buffer was added to the apical compartment. The inserts were moved to wells containing fresh basolateral buffer at 1 hr. Drug concentration in the buffer was measured by LC/MS analysis.
(§3) Flux rate (F, mass/time) was calculated from the slope of cumulative appearance of substrate on the receiver side and apparent permeability coefficient (Papp) was calculated from the following equation. Papp(cm/sec)=(F*VD)/(SA*MD)
(§4) where SA is surface area for transport (0.3 cm^2), VD is the donor volume (0.3 ml), MD is the total amount of drug on the donor side at t=0. All data represent the mean of 2 inserts. Monolayer integrity was determined by Lucifer Yellow transport.

[2] = Caco-2 permeability; type: in vitro ADME; details: human, Caco-2; apical pH 6.5 to basolateral pH 7.4, 10 μM, mean of 2 inserts; read-out: Caco2 Permeability [Papp]
Procedure: as §1, §2, §3, §4

[3] = target: T1, Human 5-HT4(d) (Homo sapiens, UniProt Q13639); assay: Human 5-HT4 binding ([3H]-GR113808 displacement, SPA); details: for Ki: membranes of human 5-HT4(d) transfected HEK293 cells, [3H]-GR113808 0.2 nM
T1 construct: expressed in transfected cells; host or cells: HEK293
T1 sequence (Q13639 1-360 isoform Q13639-3): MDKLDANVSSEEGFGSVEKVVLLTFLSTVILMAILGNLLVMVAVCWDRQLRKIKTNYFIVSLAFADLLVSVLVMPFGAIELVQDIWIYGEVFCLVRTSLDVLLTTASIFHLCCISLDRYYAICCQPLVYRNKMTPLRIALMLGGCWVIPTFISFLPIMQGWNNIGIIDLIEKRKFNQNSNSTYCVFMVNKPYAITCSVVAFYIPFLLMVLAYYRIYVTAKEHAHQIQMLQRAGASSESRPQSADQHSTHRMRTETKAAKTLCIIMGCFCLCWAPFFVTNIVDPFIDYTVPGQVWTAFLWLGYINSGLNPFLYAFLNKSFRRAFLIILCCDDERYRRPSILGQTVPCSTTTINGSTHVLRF
Procedure: The 5-HT4 receptor binding affinities of the compounds of this invention are determined by the following procedures.
Human 5-HT4(d) transfected HEK293 cells were prepared and grown in-house. The collected cells were suspended in 50 mM HEPES (pH 7.4 at 4° C.) supplemented with protease inhibitor cocktail (Boehringer, 1:1000 dilution) and homogenized using a hand held Polytron PT 1200 disruptor set at full power for 30 sec on ice. The homogenates were centrifuged at 40,000×g at 4° C. for 30 min. The pellets were then resuspended in 50 mM HEPES (pH 7.4 at 4° C.) and centrifuged once more in the same manner. The final pellets were resuspended in an appropriate volume of 50 mM HEPES (pH 7.4 at 25° C.), homogenized, aliquoted and stored at −80° C. until use. An aliquot of membrane fractions was used for protein concentration determination using BCA protein assay kit (PIERCE) and ARVOsx plate reader (Wallac).
For the binding experiments, 25 μl of test compounds were incubated with 25 μl of [^3H]-GR113808 (Amersham, final 0.2 nM) and 150 μl of membrane homogenate and WGA-SPA beads (Amersham) suspension solutions (10 μg protein and 1 mg SPA beads/well) for 60 minutes at room temperature. Nonspecific binding was determined by 1 μM GR113808 (Tocris) at the final concentration. Incubation was terminated by centrifugation at 1000 rpm. Receptor-bound radioactivity was quantified by counting with MicroBeta plate counter (Wallac).

Q: With Cc1c(Cl)cc(C(=O)NCC2CCN(CC3CCCCC3)CC2)c(=O)n1C(C)C [Example 6, 5-Chloro-N-{[1-(cyclohexylmethyl)piperidin-4-yl]methyl}-1-isopropyl-6-methyl-2-oxo-1,2-dihydropyridine-3-carboxamide] as the compound, how does the melting point read?
A: Its melting point is 168 °C (dec.).

Q: Which melting point does the source give for Cc1c(F)cc(C(=O)NCC2CCN(CC3(O)CCOCC3)CC2)c(=O)n1C(C)C [Example 5, 5-Fluoro-N-({1-[(4-hydroxytetrahydro-2H-pyran-4-yl)methyl]piperidin-4-yl}methyl)-1-isopropyl-6-methyl-2-oxo-1,2-dihydropyridine-3-carboxamide] here?
A: Its melting point is 133 °C (dec.).

Q: Which melting point does the source give for Cc1c(Cl)cc(C(=O)NCC2CCN(CC3(O)CCCCC3)CC2)c(=O)n1C(C)C [Example 7, 5-Chloro-N-({1-[(1-Hydroxycyclohexyl)Methyl]Piperidin-4-Yl}Methyl)-1-Isopropyl-6-Methyl-2-Oxo-1,2-Dihydropyridine-3-Carboxamide] here?
A: Its melting point is 187 °C (dec.).

Q: Which melting point does the source give for Cc1c(Br)cc(C(=O)NCC2CCN(CC3(O)CCOCC3)CC2)c(=O)n1C(C)C (as salt: salt) [Example 4, 5-Bromo-N-({1-[(4-hydroxytetrahydro-2H-pyran-4-yl)methyl]piperidin-4-yl}methyl)-1-isopropyl-6-methyl-2-oxo-1,2-dihydropyridine-3-carboxamide] here?
A: Its melting point is 205 °C (dec.).

Q: With Cc1cc(C(=O)NCC2CCN(CC3(O)CCOCC3)CC2)c(=O)n(C(C)C)c1C (as salt: salt) [Example 3, N-({1-[(4-Hydroxytetrahydro-2H-pyran-4-yl)methyl]piperidin-4-yl}methyl)-1-isopropyl-5,6-dimethyl-2-oxo-1,2-dihydropyridine-3-carboxamide] as the compound, how does the melting point read?
A: Its melting point is 178 °C (dec.).

Q: Which “permeability against caco2 membrane (in words)” value [1] does the source give for CCCCN1CCC(CNC(=O)c2cc(Cl)c(N)n(C)c2=O)CC1 [Compound A] here?
A: The value was “low permeability”.

Q: And the Papp A→B at 10 μM [2]?
A: Its Papp A→B at 10 μM is 0.2 ×10⁻⁶ cm/s.

Q: What about the “affinity / binding activity to 5-HT4 receptor (in words)” value [3] of the same compound?
A: Its value is “weak affinity”.

Q: And the Ki [3]?
A: The Ki was > 500 nM.

Q: For CCc1c(Cl)cc(C(=O)NCC2CCN(CC3(O)CCOCC3)CC2)c(=O)n1C(C)C (as salt: salt) [Example 2, 5-Chloro-6-ethyl-N-({1-[(4-hydroxytetrahydro-2H-pyran-4-yl)methyl]piperidin-4-yl}methyl)-1-isopropyl-2-oxo-1,2-dihydropyridine-3-carboxamide], which melting point is on record?
A: The melting point was 123 °C (dec.).

Q: With Cc1c(Cl)cc(C(=O)NCC2CCN(CC3(O)CCOCC3)CC2)c(=O)n1C(C)C (as salt: hydrochloride) [Example 1, 5-Chloro-N-({1-[(4-hydroxytetrahydro-2H-pyran-4-yl)methyl]piperidin-4-yl}methyl)-1-isopropyl-6-methyl-2-oxo-1,2-dihydropyridine-3-carboxamide] as the compound, how does the melting point read?
A: The melting point was 283 °C (dec.).

Q: For Cc1c(Cl)cc(C(=O)NCC2CCN(CC3(O)CCOCC3)CC2)c(=O)n1C(C)C [Example 1, 5-Chloro-N-({1-[(4-hydroxytetrahydro-2H-pyran-4-yl)methyl]piperidin-4-yl}methyl)-1-isopropyl-6-methyl-2-oxo-1,2-dihydropyridine-3-carboxamide], which Papp A→B at 10 μM [2] is on record?
A: The Papp A→B at 10 μM was 5.3 ×10⁻⁶ cm/s.

Q: And the Ki [3]?
A: The Ki was 10.9 nM.
